Reference: patent publication US6987106B1, “1,4-diazabicyclo[3.2.2]nonane-4-carboxylates and carboxamide derivates, production and use thereof in therapeutics” (Sanofi-Aventis, priority 1999, dated 2006)

## Br.CN(C(=O)N1CCN2CCC1CC2)c1ccccc1
  melting point: 206 to 207 °C
